Laboratory results published in PubChem BioAssay (NCI).
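Five concentrations, 48 hours, 96-well plates. GI50 = concentration required for 50% inhibition of growth. TGI denotes the concentration required for complete inhibition of growth.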

What was measured:
Assay in all cases: NCI anticancer screen, dose series, 48 h
MOLT-4 leukemia = system: MOLT-4 leukemia
NCI-H460 lung = system: NCI-H460 lung
TK-10 renal = system: TK-10 renal
SNB-75 CNS = system: SNB-75 CNS
MALME-3M melanoma = system: MALME-3M melanoma
HOP-62 NSCLC = system: HOP-62 NSCLC
SR leukemia = system: SR leukemia
ACHN renal = system: ACHN renal
OVCAR-3 ovarian = system: OVCAR-3 ovarian
SF-539 CNS = system: SF-539 CNS

Compound	GI50 (MOLT-4 leukemia)	TGI (MOLT-4 leukemia)	GI50 (NCI-H460 lung)	TGI (NCI-H460 lung)	GI50 (TK-10 renal)	TGI (TK-10 renal)	GI50 (SNB-75 CNS)	TGI (SNB-75 CNS)	GI50 (MALME-3M melanoma)	TGI (MALME-3M melanoma)	GI50 (HOP-62 NSCLC)	TGI (HOP-62 NSCLC)	GI50 (SR leukemia)	TGI (SR leukemia)	GI50 (ACHN renal)	TGI (ACHN renal)	GI50 (OVCAR-3 ovarian)	TGI (OVCAR-3 ovarian)	GI50 (SF-539 CNS)	TGI (SF-539 CNS)
COc1ccc(-c2cc(-c3ccc(Nc4nc(Nc5ccc(Cl)cc5)nc(Nc5ccc(Cl)cc5)n4)cc3)nc(N)c2C#N)cc1	0.702 µM	3.56 µM	4.2 µM	> 54.2 µM	2.08 µM	3.77 µM	1.4 µM	3.5 µM	1.73 µM	3.49 µM	11.9 µM	> 42.3 µM	0.485 µM	3.29 µM	0.803 µM	2.18 µM	1.68 µM	3.18 µM	2.02 µM	4.15 µM
O=C(Nc1n[nH]c2nc(-c3ccco3)c(Br)cc12)C1CC1	> 25 µM	> 25 µM	> 25 µM	> 25 µM	> 25 µM	> 25 µM	> 9.08 µM	> 25 µM	> 25 µM	> 25 µM	> 25 µM	> 25 µM	> 25 µM	> 25 µM	> 25 µM	> 25 µM	> 25 µM	> 25 µM	> 25 µM	> 25 µM
O=[N+]([O-])c1ccc(-c2ccc(/C=N/n3c(-c4ccc(Cl)cc4)n[nH]c3=S)o2)cc1	–	> 100 µM	–	> 54.7 µM	–	> 64.7 µM	–	> 83.1 µM	–	43.1 µM	–	> 52.9 µM	–	> 83.6 µM	–	> 60.8 µM	–	> 66.8 µM	–	> 62.7 µM
O=S(=O)(O)CS(=O)(=O)OCCCl	–	> 100 µM	–	> 100 µM	–	> 100 µM	–	> 100 µM	–	> 100 µM	–	> 100 µM	–	> 100 µM	–	> 100 µM	–	> 100 µM	–	> 100 µM
O=C(c1cccs1)c1c(C(F)(F)F)n([O-])c2ccc(C(F)(F)F)cc2[n+]1=O	0.174 µM	0.498 µM	0.205 µM	0.407 µM	0.596 µM	1.31 µM	0.502 µM	1.21 µM	0.552 µM	1.21 µM	0.298 µM	0.767 µM	0.301 µM	1.28 µM	0.183 µM	0.326 µM	0.258 µM	0.744 µM	0.183 µM	0.36 µM
O=C1C2CC(Cl)C(SSC3CC4C(=O)N(SC(Cl)(Cl)C(Cl)Cl)C(=O)C4CC3Cl)CC2C(=O)N1SC(Cl)(Cl)C(Cl)Cl (centres undefined)	–	1.35 µM	–	13.4 µM	–	7.07 µM	–	6.12 µM	–	2.86 µM	–	8.64 µM	–	1.21 µM	–	6.66 µM	–	5.07 µM	–	6.89 µM
Cc1ccc(S(=O)(=O)N/N=C/C(Br)=C(/Br)C(=O)O)cc1	–	3.51 µM	–	44.4 µM	–	22.9 µM	–	41 µM	–	14.3 µM	–	43.6 µM	–	1.7 µM	–	8.75 µM	–	20.2 µM	–	14.5 µM
CNC(=O)OCc1nc(SC(C)C)n(C)c1COC(=O)NC	–	> 86.6 µM	–	> 100 µM	–	–	–	> 100 µM	–	> 100 µM	–	> 100 µM	–	> 100 µM	–	> 100 µM	–	> 100 µM	–	> 100 µM
Cc1ccc(S(=O)(=O)NC(CCC(=O)Nc2ccc(Cl)cc2)C(=O)Nc2ccc(Cl)cc2)cc1 (centres undefined)	0.691 µM	7.66 µM	0.204 µM	7.33 µM	2.95 µM	10 µM	0.743 µM	2.23 µM	1.82 µM	8.27 µM	0.62 µM	2.07 µM	0.197 µM	6.76 µM	0.248 µM	6.57 µM	0.93 µM	5.8 µM	0.21 µM	1.54 µM
COc1c(OC(C)=O)ccc(/C=C2\N=C(C)OC2=O)c1[N+](=O)[O-]	–	> 100 µM	–	> 100 µM	–	> 100 µM	–	> 100 µM	–	> 100 µM	–	> 100 µM	–	> 100 µM	–	> 100 µM	–	–	–	> 100 µM
O=C(Cc1ccccc1)NN1C(=O)C(Cl)C1c1cccc(O)c1 (centres undefined)	–	31.6 µM	–	36.4 µM	–	34.1 µM	–	74.6 µM	–	76.3 µM	–	80.6 µM	–	15.4 µM	–	31 µM	–	28.1 µM	–	–
COc1cc(O)c(C(=O)/C=C/c2ccccc2)c(OC)c1	–	25 µM	–	13.3 µM	–	19.7 µM	–	–	–	18.2 µM	–	38.5 µM	–	6.05 µM	–	20.8 µM	–	44.7 µM	–	12.8 µM
O=C(CCCc1c[nH]c2ccccc12)NC1CC(=O)c2c(Br)sc(Br)c21 (centres undefined)	10.2 µM	55.4 µM	19.2 µM	38.7 µM	26 µM	> 100 µM	13.9 µM	27.7 µM	16.4 µM	48 µM	18.3 µM	33 µM	2.62 µM	6.79 µM	16.5 µM	30.4 µM	10.4 µM	29.3 µM	23.1 µM	50.1 µM
O=C1C=C[C@]2(C[C@@H](c3cccc(C(F)(F)F)c3)O[C@@H](c3cccc(C(F)(F)F)c3)O2)O1	–	–	0.6 µM	2.58 µM	1.66 µM	3.22 µM	2.79 µM	16.1 µM	2.27 µM	7.06 µM	5.08 µM	18.2 µM	0.674 µM	5.4 µM	1.55 µM	3.1 µM	1.6 µM	3.71 µM	1.43 µM	3.31 µM
COc1cc2cc(Oc3ccc(NC(=O)Nc4cccc(C(F)(F)F)c4)cc3)c(C)nc2cc1OCCN1CCCCC1	–	–	1.83 µM	3.37 µM	1.83 µM	3.36 µM	1.15 µM	2.37 µM	1.63 µM	3.07 µM	–	–	0.479 µM	2.52 µM	1.69 µM	3.06 µM	1.71 µM	3.15 µM	1.67 µM	3.05 µM
Cc1cc(Br)cc(C)c1NC(=O)C(=O)CC(=O)c1sc(-n2nc(-c3ccccc3)cc2-c2ccccc2)nc1C	–	> 100 µM	–	> 100 µM	–	> 100 µM	–	> 100 µM	–	> 100 µM	–	> 100 µM	–	> 100 µM	–	> 100 µM	–	> 100 µM	–	–
